Experimental data reported in US7034035B2, “Fungicidal mono-, bi-, and tri-cycloheteroalkyl amides and their compositions, methods of use and preparation” (priority 1999, dated 2006).
Read-outs that look alike come from different tables or passages of the source.

How the values were obtained:
[1] = system: Magnaporthe grisea (Pyricularia oryzae—PYRIOR); experiment: microbe, parasite or virus in culture; format: cell-based; details: for PYRIOR in vitro Growth Inhibition: in vitro fungal growth
[2] = system: Rhizoctonia solani (RHIZSO); experiment: microbe, parasite or virus in culture; format: cell-based
[3] = system: Mycosphaerella graminicola (Septoria tritici—SEPTTR); experiment: Inhibition of in vitro fungal growth, SEPTTR; format: cell-based; parameters: inhibition of growth: dose or concentration left out as unconfirmed
[4] = system: Stagonospora nodorum (Leptosphaeria nodorum—LEPTNO); experiment: Inhibition of in vitro fungal growth, LEPTNO; format: cell-based; parameters: inhibition of growth: dose or concentration left out as unconfirmed
[5] = system: Ustilago maydis (USTIMA); experiment: microbe, parasite or virus in culture; format: cell-based
[6] = system: Phytophthora infestans (PHYTIN); experiment: microbe, parasite or virus in culture; format: cell-based; details: for PHYTIN in vitro Growth Inhibition: in vitro fungal growth
[7] = system: Phytophthora infestans—PHYTIN; experiment: whole plant or invertebrate; format: in vivo; details: for PHYTIN in vivo 1 Day Protectant: inoculated after 24 hours; for pest or weed control at 100 ppm: Phytophthora, in Solanum lycopersicum, 24 h, read-out: PHYTIN in vivo 1 Day Protectant
[8] = system: Puccinia recondita—PUCCRT; experiment: Brown Rust of Wheat, in vivo whole plant, 24 Hour Protectant; details: inoculated after 24 hours; for pest or weed control at 100 ppm: Puccinia, read-out: PUCCRT in vivo 1 Day Protectant
[9] = system: Septoria tritici—SEPTTR; experiment: Leaf Blotch of Wheat, in vivo whole plant, 24 Hour Protectant; details: for pest or weed control at 100 ppm: Zymoseptoria tritici, read-out: SEPTTR in vivo 1 Day Protectant
[10] = system: Leptosphaeria nodorum—LEPTNO; experiment: Glume Blotch of Wheat, in vivo whole plant, 24 Hour Protectant; details: inoculated after 24 hours; for pest or weed control at 100 ppm: Leptosphaeria, 24 h, read-out: LEPTNO in vivo 1 Day Protectant
[11] = system: Erysiphe graminis—ERYSGT; experiment: Powdery Mildew of Wheat, in vivo whole plant, 24 Hour Protectant; details: for ERYSGT in vivo 1 Day Protectant: wheat (cultivar Monon), sprayed at 100 ppm, inoculated after 24 hours, control of fungal infection vs untreated plants; for pest or weed control at 100 ppm: Erysiphe, in Triticum aestivum, 24 h, read-out: ERYSGT in vivo 1 Day Protectant
[12] = tomato (cultivar Rutgers), sprayed at 100 ppm, control of fungal infection vs untreated plants
[13] = wheat (cultivar Yuma), sprayed at 100 ppm, control of fungal infection vs untreated plants
[14] = wheat (cultivar Yuma), sprayed at 100 ppm, inoculated after 24 hours, control of fungal infection vs untreated plants
[15] = wheat plants sprayed at 100 ppm, control vs untreated plants
[16] = wheat plants sprayed at 100 ppm, inoculated after 24 hours, control vs untreated plants

Molecule | RHIZSO in vitro Growth Inhibition [2] | SEPTTR in vitro Growth Inhibition [3] | LEPTNO in vitro Growth Inhibition [4] | USTIMA in vitro Growth Inhibition [5] | PUCCRT in vivo 1 Day Protectant [8, 13] | LEPTNO in vivo 1 Day Protectant [10, 13] | ERYSGT in vivo 1 Day Protectant [11] | also measured
N-(3-Hydroxy-4-Methoxy-2-Pyridylcarbonyl)-2-Amino-2-Deoxy-alpha-D-Glucopyranose [Compound 334] | − (key: +: at least 80% growth inhibition; −: less than 80% growth inhibition) | − (key: +: at least 80% growth inhibition; −: less than 80% growth inhibition) | − (key: +: at least 80% growth inhibition; −: less than 80% growth inhibition) | − (key: +: at least 80% growth inhibition; −: less than 80% growth inhibition) | − (<25% control of fungal infection) | + (25-74% control of fungal infection) | − (<25% control of fungal infection) | PYRIOR in vitro Growth Inhibition [1]: − (less than 80% growth inhibition); PHYTIN in vitro Growth Inhibition [6]: − (less than 80% growth inhibition); PHYTIN in vivo 1 Day Protectant [7, 12]: − (<25% control of fungal infection); SEPTTR in vivo 1 Day Protectant [9, 14]: − (<25% control of fungal infection)
O=C(N[C@H]1CC2CC1[C@@H]1CCC[C@H]21)c1ncccc1O (some centres unmarked) [Compound 206] | + (key: +: at least 80% growth inhibition; −: less than 80% growth inhibition) | + (key: +: at least 80% growth inhibition; −: less than 80% growth inhibition) | + (key: +: at least 80% growth inhibition; −: less than 80% growth inhibition) | − (key: +: at least 80% growth inhibition; −: less than 80% growth inhibition) | − (<25% control of fungal infection) | − (<25% control of fungal infection) | − (<25% control of fungal infection) | PYRIOR in vitro Growth Inhibition [1]: + (at least 80% growth inhibition); PHYTIN in vitro Growth Inhibition [6]: − (less than 80% growth inhibition); PHYTIN in vivo 1 Day Protectant [7, 12]: − (<25% control of fungal infection); SEPTTR in vivo 1 Day Protectant [9, 14]: − (<25% control of fungal infection)
COc1ccnc(C(=O)N[C@H]2C[C@@H](O[Si](C)(C)C(C)(C)C)O[C@@H](C)[C@@H]2OCc2ccccc2)c1O [Compound 328] | − (key: +: at least 80% growth inhibition; −: less than 80% growth inhibition) | − (key: +: at least 80% growth inhibition; −: less than 80% growth inhibition) | − (key: +: at least 80% growth inhibition; −: less than 80% growth inhibition) | − (key: +: at least 80% growth inhibition; −: less than 80% growth inhibition) |  |  |  | 
COC(=O)C(Cc1ccc(OCc2ccccc2)cc1)NC(=O)c1nccc(OC)c1O (single isomer, unassigned) [Compound 338] |  |  |  |  |  |  |  | inhibition of growth at 25 µg/mL ([1]; Pyricularia oryzae, read-out: PYRIOR in vitro Growth Inhibition): < 80%; inhibition of growth at 25 µg/mL ([2]; Rhizoctonia solani, read-out: RHIZSO in vitro Growth Inhibition): < 80%; inhibition of growth ([3]; Zymoseptoria tritici, in vitro fungal growth): < 80%; inhibition of growth ([4]; Leptosphaeria, in vitro fungal growth): < 80%; inhibition of growth at 25 µg/mL ([5]; Mycosarcoma maydis, read-out: USTIMA in vitro Growth Inhibition): > 80%; inhibition of growth at 25 µg/mL ([6]; Phytophthora infestans, read-out: PHYTIN in vitro Growth Inhibition): < 80%; pest or weed control at 100 ppm [8, 13]: 75 to 100%; pest or weed control at 100 ppm [10, 13]: 75 to 100%
COc1ccnc(C(=O)NC2CCN(Cc3ccccc3)CC2)c1O.O=C(O)/C=C\C(=O)O [Compound 305] | − (key: +: at least 80% growth inhibition; −: less than 80% growth inhibition) | − (key: +: at least 80% growth inhibition; −: less than 80% growth inhibition) | − (key: +: at least 80% growth inhibition; −: less than 80% growth inhibition) | − (key: +: at least 80% growth inhibition; −: less than 80% growth inhibition) | − (<25% control of fungal infection) | − (<25% control of fungal infection) | − (<25% control of fungal infection) | pest or weed control at 100 ppm [7]: 75 to 100%; SEPTTR in vivo 1 Day Protectant [9, 14]: − (<25% control of fungal infection)
COc1ccnc(C(=O)N[C@@H]2C[C@@H](O[Si](C)(C)C(C)(C)C)O[C@@H](C)[C@@H]2OCc2ccccc2)c1O [Compound 327] | − (key: +: at least 80% growth inhibition; −: less than 80% growth inhibition) | − (key: +: at least 80% growth inhibition; −: less than 80% growth inhibition) | − (key: +: at least 80% growth inhibition; −: less than 80% growth inhibition) | − (key: +: at least 80% growth inhibition; −: less than 80% growth inhibition) |  |  |  | pest or weed control at 100 ppm [9, 14]: 75 to 100%
COc1ccnc(C(=O)NC2CCN(Cc3cccc(C(F)(F)F)c3)CC2)c1O.O=C(O)/C=C\C(=O)O.O=C(O)/C=C\C(=O)O [Compound 307] | − (key: +: at least 80% growth inhibition; −: less than 80% growth inhibition) | − (key: +: at least 80% growth inhibition; −: less than 80% growth inhibition) | − (key: +: at least 80% growth inhibition; −: less than 80% growth inhibition) | − (key: +: at least 80% growth inhibition; −: less than 80% growth inhibition) | − (<25% control of fungal infection) | − (<25% control of fungal infection) | + (25-74% control of fungal infection) | 
COc1ccnc(C(=O)N[C@@H]2C[C@@H](O[Si](C)(C)C(C)(C)C)O[C@@H](C)[C@@H]2OC)c1O [Compound 326] | − (key: +: at least 80% growth inhibition; −: less than 80% growth inhibition) | − (key: +: at least 80% growth inhibition; −: less than 80% growth inhibition) | − (key: +: at least 80% growth inhibition; −: less than 80% growth inhibition) | − (key: +: at least 80% growth inhibition; −: less than 80% growth inhibition) |  |  |  | pest or weed control at 100 ppm [9, 14]: 75 to 100%
Br.COc1ccnc(C(=O)NC2C[C@@H](Cc3ccccc3)O[C@@H](C)C2)c1O (some centres unmarked) [Compound 311] | − (key: +: at least 80% growth inhibition; −: less than 80% growth inhibition) | − (key: +: at least 80% growth inhibition; −: less than 80% growth inhibition) | − (key: +: at least 80% growth inhibition; −: less than 80% growth inhibition) | − (key: +: at least 80% growth inhibition; −: less than 80% growth inhibition) | + (25-74% control of fungal infection) | + (25-74% control of fungal infection) | − (<25% control of fungal infection) | pest or weed control at 100 ppm ([9]; 24 h): 75 to 100%
COc1ccnc(C(=O)NC2COC(=O)[C@H](Cc3ccccc3)[C@@H](OC(=O)C(C)C)[C@H](C)OC2=O)c1O (some centres unmarked) [Compound 475] |  |  |  |  |  |  |  | pest or weed control at 100 ppm [7]: < 25%; pest or weed control at 100 ppm [8, 15]: 25 to 74%; pest or weed control at 100 ppm [9, 16]: 25 to 74%; pest or weed control at 100 ppm [10, 15]: 75 to 100%; pest or weed control at 100 ppm [11]: < 25%
COc1ccnc(C(=O)N[C@H]2COC(=O)[C@H](Cc3ccccc3)[C@@H](OC(=O)CC(C)C)[C@H](C)OC2=O)c1O [Compound 390] |  |  |  |  |  |  |  | pest or weed control at 100 ppm [7]: < 25%; pest or weed control at 100 ppm [8, 13]: 25 to 74%; pest or weed control at 100 ppm [9, 14]: 25 to 74%; pest or weed control at 100 ppm [10, 13]: 75 to 100%; pest or weed control at 100 ppm [11]: < 25%
O=C(Nc1cccc(Oc2cccc(C(F)(F)F)c2)c1)c1nc(Br)ccc1O [Compound 496] |  |  |  |  |  |  |  | PHYTIN in vivo 1 Day Protectant ([7]; tomato plants sprayed at 100 ppm, control vs untreated plants): − (<25% control of fungal infection); PUCCRT in vivo 1 Day Protectant [8, 15]: + (25-74% control of fungal infection); SEPTTR in vivo 1 Day Protectant [9, 16]: + (25-74% control of fungal infection); LEPTNO in vivo 1 Day Protectant [10, 15]: − (<25% control of fungal infection); pest or weed control at 100 ppm [11]: < 25%
